Data as given in PubChem BioAssay (NCI).
“And” between values parts separate entries of the source, which are not always exact repeats. Identical values can stand only once.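 Step 1: Grow cells in 96-well plates. Step 2: Expose to compound for 48 hours at 5 concentrations. Step 3: Interpolate endpoints linearly; if unreached, use highest concentration. At the GI50, growth is halved. TGI denotes the concentration required for complete inhibition of growth.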

What was measured:
Assay in all cases: inhibition of tumour cell growth, NCI panel, 48 h
DU-145 prostate = tested on: DU-145 prostate
HCC-2998 colon = tested on: HCC-2998 colon
HCT-15 colon = tested on: HCT-15 colon
HOP-92 NSCLC = tested on: HOP-92 NSCLC
HT29 colon = tested on: HT29 colon
LOX IMVI melanoma = tested on: LOX IMVI melanoma
NCI/ADR-RES ovarian = tested on: NCI/ADR-RES ovarian
PC-3 prostate = tested on: PC-3 prostate
T-47D breast = tested on: T-47D breast
TK-10 renal = tested on: TK-10 renal

Compound	GI50 (DU-145 prostate)	TGI (DU-145 prostate)	GI50 (HCC-2998 colon)	TGI (HCC-2998 colon)	GI50 (HCT-15 colon)	TGI (HCT-15 colon)	GI50 (HOP-92 NSCLC)	TGI (HOP-92 NSCLC)	GI50 (HT29 colon)	TGI (HT29 colon)	GI50 (LOX IMVI melanoma)	TGI (LOX IMVI melanoma)	GI50 (NCI/ADR-RES ovarian)	TGI (NCI/ADR-RES ovarian)	GI50 (PC-3 prostate)	TGI (PC-3 prostate)	GI50 (T-47D breast)	TGI (T-47D breast)	GI50 (TK-10 renal)	TGI (TK-10 renal)
CO[C@H](C(=O)[C@@H](O)[C@@H](C)O)[C@@H]1Cc2cc3cc(O[C@H]4C[C@@H](O[C@H]5C[C@@H](O)[C@H](O)C(C)O5)[C@H](O)C(C)O4)c(C)c(O)c3c(O)c2C(=O)[C@H]1O[C@H]1C[C@@H](O[C@H]2C[C@@H](O[C@H]3C[C@@H](OC)[C@H](O)C(C)O3)[C@@H](O)C(C)O2)C(O)(O)C(C)O1 (stereo partly specified)	0.237 µM	> 25 µM	0.47 µM	5.09 µM	2.65 µM	> 25 µM	0.103 µM	> 6.49 µM	0.212 µM	5.01 µM	0.0745 µM	3.68 µM	> 25 µM	> 25 µM	0.396 µM	> 25 µM	0.0543 µM	24.6 µM	0.15 µM	> 24.1 µM
CC(=O)C1=C(O)C=C2Oc3c(C(=O)/C=C/c4cc(C(F)(F)F)cc(C(F)(F)F)c4)c(O)c(C)c(O)c3[C@]2(C)C1=O	0.63 µM	4.91 µM	1.53 µM	3.63 µM	0.462 µM	2.54 µM			0.535 µM	1.71 µM	0.511 µM	1.89 µM	0.5 µM	2.93 µM	0.564 µM	2.3 µM	0.385 µM	1.37 µM	0.587 µM	8.23 µM
CNC(=O)c1cc(COc2nnc(Nc3ccc(Cl)cc3)c3ccoc23)ccn1	9.43 µM and > 10 µM	26 µM and > 10 µM	17 µM and > 10 µM	52.7 µM and > 10 µM	12.6 µM and > 10 µM	52.4 µM and > 10 µM	2.9 µM and 3.78 µM	14.4 µM and > 10 µM	9.45 µM and > 10 µM	31.2 µM and > 10 µM	6.41 µM and > 10 µM	25.1 µM and > 10 µM	4.48 µM and > 10 µM	> 42.5 µM	9.39 µM and > 10 µM	> 57.7 µM	2.87 µM and 5.77 µM	12.5 µM and > 10 µM	3.59 µM and 8.84 µM	11.8 µM and > 10 µM
COc1ccc(C#Cc2ccccc2C#CCCCCO)cc1	21.3 µM	52.6 µM	17.9 µM	33.3 µM	16.3 µM	29.9 µM	23.5 µM	47.7 µM	12.3 µM	24.8 µM	16.9 µM	30.6 µM	24.4 µM	48.4 µM	21.9 µM	42.6 µM	22 µM	43.8 µM	16.7 µM	35.2 µM
C(=Nc1ccccc1)C1CCCC[N-]1.C(=Nc1ccccc1)C1CCCC[N-]1.[Cu+2].[O-][Cl+3]([O-])([O-])O (stereo unspecified)	8.48 µM	36.9 µM	2.4 µM	24.4 µM	0.529 µM	9.76 µM	23 µM	> 73.9 µM	15.5 µM	30.8 µM	0.0132 µM	11.8 µM	8.33 µM	29.7 µM	12.3 µM	34.2 µM	21.6 µM	> 100 µM	9.8 µM	32.7 µM
COc1cccc2c1C(=O)c1c(O)c3c(c(O)c1C2=O)CC(O)(C(C)=O)CC3OC1CC(N)C(O)C(C)O1 (stereo unspecified)	0.0208 µg/mL	1.65 µg/mL	0.243 µg/mL	0.912 µg/mL	0.824 µg/mL	7.86 µg/mL	0.0155 µg/mL	0.413 µg/mL	0.0242 µg/mL	1.22 µg/mL	0.0166 µg/mL	1.57 µg/mL	3.52 µg/mL	25 µg/mL	0.0336 µg/mL	0.545 µg/mL	0.0185 µg/mL	0.216 µg/mL	0.273 µg/mL	18.6 µg/mL
Cc1nc2ccc(CN(C)c3ccc(C(=O)N[C@@H](CCC(=O)O)C(=O)O)s3)cc2c(=O)[nH]1		> 100 µM	< 0.01 µM	> 100 µM		> 100 µM		> 100 µM		> 100 µM		> 100 µM	< 0.0149 µM	> 100 µM		> 100 µM		> 100 µM		> 100 µM
O=C(c1ccc2ccccc2c1O)N1CCCCC1		> 100 µM		> 100 µM		> 100 µM		> 100 µM		> 100 µM		> 100 µM		> 100 µM		> 100 µM		> 100 µM		> 100 µM
O=C(/C=C/c1ccc(B(O)O)cc1)/C=C/c1ccc(B(O)O)cc1	4.63 µM	14.9 µM	1.95 µM	3.61 µM	2.67 µM	10.7 µM	7.94 µM	22.9 µM	1.82 µM	3.95 µM	1.59 µM	3.07 µM	17 µM	62.9 µM	3.31 µM	14.3 µM	2.7 µM	12.3 µM	5.12 µM	17.3 µM
Cc1ccc(C(=O)N(CCCN)[C@@H](c2nc3cc(Cl)ccc3c(=O)n2Cc2ccccc2)C(C)C)cc1	< 0.01 µM		< 0.01 µM	1.23 µM and 0.912 µM	0.0159 µM and < 0.01 µM	1.92 µM and 1.44 µM	1 µM	2 µM and 2.33 µM	< 0.01 µM	1.03 µM and 1.49 µM	< 0.01 µM	1.81 µM and 1.52 µM	0.0481 µM and 0.0406 µM	0.307 µM and 0.481 µM	< 0.01 µM	2.32 µM and 1.76 µM	< 0.01 µM	1.98 µM and 1.67 µM		1.71 µM and 2.81 µM
Cc1ccc(NCCCN2CCN(CCCNc3ccc(C)c4sc5ccccc5c(=O)c34)CC2)c2c(=O)c3ccccc3sc12		> 100 µM		> 100 µM		> 100 µM				> 100 µM		> 100 µM		> 100 µM		> 100 µM		> 100 µM		
Cc1nc2sccn2c1/C=C1/C(=O)Nc2ccccc21	24.4 µM	> 100 µM	1.13 µM	27.2 µM	2.46 µM	> 100 µM	17.9 µM	> 100 µM	2.81 µM	> 100 µM	8.42 µM	> 100 µM	3.51 µM	> 51 µM	12.3 µM	> 100 µM	0.499 µM	> 100 µM	6.55 µM	> 78.1 µM
O=[N+]([O-])c1ccc(Nc2ccccc2-c2ccccc2)c2nonc12	28.2 µM	> 100 µM	11.7 µM	27.2 µM	13.2 µM	28.2 µM	3.15 µM	23.4 µM	19.3 µM	47.2 µM	12.8 µM	26.6 µM	13.6 µM	34.7 µM	13.6 µM	66.2 µM	10.5 µM	> 100 µM	22.8 µM	59.6 µM
